Biological target: T1, human M4 muscarinic acetylcholine receptor (Homo sapiens, UniProt P08173)
T1 construct: expressed in transfected cells; host or cells: CHO-K1
T1 sequence (P08173 1-479): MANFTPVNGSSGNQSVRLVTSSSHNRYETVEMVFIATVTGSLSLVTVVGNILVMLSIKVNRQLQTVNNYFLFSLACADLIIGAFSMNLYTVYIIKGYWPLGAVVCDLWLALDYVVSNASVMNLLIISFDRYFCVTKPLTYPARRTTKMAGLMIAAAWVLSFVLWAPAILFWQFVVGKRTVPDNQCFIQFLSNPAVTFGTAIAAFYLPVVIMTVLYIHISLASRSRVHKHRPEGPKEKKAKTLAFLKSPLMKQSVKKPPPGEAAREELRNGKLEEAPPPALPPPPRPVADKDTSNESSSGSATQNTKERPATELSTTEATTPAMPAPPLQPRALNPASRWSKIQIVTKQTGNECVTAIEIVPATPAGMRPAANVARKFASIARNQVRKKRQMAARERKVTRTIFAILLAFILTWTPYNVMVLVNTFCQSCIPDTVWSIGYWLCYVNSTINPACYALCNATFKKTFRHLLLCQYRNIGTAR
Experiment: human FLIPR-based M4 PAM assay (CHO-K1 cells with human M4 receptor and Gaqi5, calcium dye fluorescence)
Assay type: cell-based
Conditions: inflection point (IP) of dose response curve, acetylcholine added at 20% of maximum response, read-out: M4 FLIPPR Hu IP
Description: (§1) In a typical experiment the M4 muscarinic acetylcholine receptor modulating activity of the compounds of the present invention was determined in accordance with the following experimental method. CHO-K1 cells stably transfected with human M4 receptor and chimeric G-protein Gaqi5 (Coward P, et al., Analytical Biochemistry, 270:242-248 (1999)) are thawed from liquid N2 storage, resuspended in growth medium, plated in black, clear bottom 384 well plates, and incubated 16-20 hours at 37° C., 5% CO2. On the day of assay, growth medium is removed, the cells are washed 2 times with wash buffer, and cells are incubated in dye loading buffer at 37° C., 5% CO2 for ˜1 hour. Following dye loading the cell plates are placed in a FLIPR Tetra instrument and while monitoring dye fluorescence (excitation 470-495 […]), 10 uL of test substance at increasing concentrations is added, and fluorescence values are recorded for 4 min. Next, 10 uL of acetylcholine is added (final concentration calculated so as to achieve 20% of the maximum acetycholine response), and the fluorescence reading is continued for 3.5 min. In some cases, a third addition of acetylcholine (final concentration calculated to achieve 70% of the maximal acetylcholine response) is performed. The resulting dose response curves are fit to a 4 parameter logistic equation and the final result is determined as the inflection point (IP) of the curve
as §1, with “CHO-K1” for “In a typical experiment the M4 muscarinic acetylcholine receptor modulating activity of the compounds of the present invention was determined in accordance with the following experimental method. CHO-K1”, “Gaqi5” for “Gaqi5 (Coward P, et al., Analytical Biochemistry, 270:242-248 (1999))”, “performed.” for “performed. The resulting dose response curves are fit to a 4 parameter logistic equation and the final result is determined as the inflection point (IP) of the curve”

EC50 [nM]	SMILES
29	Cc1ccc(-c2cnn(C[C@@H]3CC[C@H](F)C3)c2)c(-c2ccc3cccnc3c2)n1 (racemic) [Example 31, 7-(3-(1-(((1R,3S and 1S,3R)-3-fluorocyclopentyl)methyl)-1H-pyrazol-4-yl)-6-methylpyridin-2-yl)quinoline]
22	Cc1ccc(-c2cnn(CC3CCC(F)(F)C3)c2)c(-c2ccc3cccnc3c2)n1 (single isomer, unassigned) [Example 129, (S or R)-7-(3-(1-((3,3-difluorocyclopentyl)methyl)-1H-pyrazol-4-yl)-6-methylpyridin-2-yl)quinoline]
25	Cc1ccc(-c2cnn(CC3CCC(F)(F)C3)c2)c(-c2ccc3cccnc3c2)n1 (single isomer, unassigned) [Example 130, (R or S)-7-(3-(1-((3,3-difluorocyclopentyl)methyl)-1H-pyrazol-4-yl)-6-methylpyridin-2-yl)quinoline]
31	Cc1ccc(-c2cnn(C[C@H]3CC[C@H](F)C3)c2)c(-c2ccc3cccnc3c2)n1 (single isomer, unassigned) [Example 131, 7-(3-(1-(((1S,3S) or (1R,3R)-3-fluorocyclopentyl)methyl)-1H-pyrazol-4-yl)-6-methylpyridin-2-yl)quinoline]
17	Cc1ccc(-c2cnn(C[C@@H]3CC[C@@H](F)C3)c2)c(-c2ccc3cccnc3c2)n1 (single isomer, unassigned) [Example 132, 7-(3-(1-(((1R,3R) or (1S,3S)-3-fluorocyclopentyl)methyl)-1H-pyrazol-4-yl)-6-methylpyridin-2-yl)quinoline]
17	Cc1ccc(-c2cnn(C[C@@H]3CC[C@H](F)C3)c2)c(-c2ccc3cccnc3c2)n1 (single isomer, unassigned) [Example 133, 7-(3-(1-(((1R,3S) or (1S,3R)-3-fluorocyclopentyl)methyl)-1H-pyrazol-4-yl)-6-methylpyridin-2-yl)quinoline]
26	Cc1ccc(-c2cnn(C[C@H]3CC[C@@H](F)C3)c2)c(-c2ccc3cccnc3c2)n1 (single isomer, unassigned) [Example 134, 7-(3-(1-(((1S,3R) or (1R,3S)-3-fluorocyclopentyl)methyl)-1H-pyrazol-4-yl)-6-methylpyridin-2-yl)quinoline]
67	COc1cc2ccc(-c3nc(C)ccc3-c3cnn(CC4(C)CCC(=O)C4)c3)cc2nn1 (single isomer, unassigned) [Example 148, (S or R)-3-((4-(2-(3-methoxycinnolin-7-yl)-6-methylpyridin-3-yl)-1H-pyrazol-1-yl)methyl)-3-methylcyclopentan-1-one]
22	COc1cc2ccc(-c3nc(C)ccc3-c3cnn(CC4(C)CCC(F)(F)C4)c3)cc2nn1 (single isomer, unassigned) [Example 150, (R or S)-7-(3-(1-((3,3-difluoro-1-methylcyclopentyl)methyl)-1H-pyrazol-4-yl)-6-methylpyridin-2-yl)-3-methoxycinnoline]
50	N#Cc1ccc(-c2cnn(CC3CCC(F)C3)c2)c(-c2ccc3cccnc3c2)n1 (single isomer, unassigned) [compound 146, 5-(1-(((1R,3S) or (1S,3R)-3-fluoro-cyclopentyl)methyl)-1H-pyrazol-4-yl)-6-(quinolin-7-yl)picolinonitrile]
200	COc1cc2ccc(-c3nc(C)ccc3-c3cnn(CC4(C)CCC(=O)C4)c3)cc2nn1 (single isomer, unassigned; isomer a) [Example 149, 3-((4-(2-(3-methoxycinnolin-7-yl)-6-methylpyridin-3-yl)-1H-pyrazol-1-yl)methyl)-3-methylcyclopentan-1-one isomer A]
30	COc1cc2ccc(-c3nc(C)ccc3-c3cnn(CC4(C)CCC(F)(F)C4)c3)cc2nn1 (single isomer, unassigned; isomer b) [Example 151, (S or R)-7-(3-(1-((3,3-difluoro-1-methylcyclo-pentyl)methyl)-1H-pyrazol-4-yl)-6-methylpyridin-2-yl)-3-methoxycinnoline isomer B]

Second part, the compound before the results:

SMILES	EC50 [nM]
Cc1ccc(-c2cnn(CC3C[C@@H](F)[C@@H](F)C3)c2)c(-c2ccc3cccnc3c2)n1 (mixture of isomers) [Example 27, 7-(3-(1-(((3R,4S and 3S,4R)-3,4-difluorocyclopentyl)methyl)-1H-pyrazol-4-yl)-6-methylpyridin-2-yl)quinoline (+/−)]	64
Cc1ccc(-c2cnn(CC3C[C@H](F)[C@@H](F)C3)c2)c(-c2ccc3cccnc3c2)n1 (racemic) [Example 29, 7-(3-(1-(((3S,4S and 3R,4R)-3,4-difluorocyclopentyl)methyl)-1H-pyrazol-4-yl)-6-methylpyridin-2-yl)quinoline]	39
Cc1ccc(-c2cnn(C[C@H]3CC[C@H](F)C3)c2)c(-c2ccc3cccnc3c2)n1 (racemic) [Example 30, 7-(3-(1-(((1S,3S and 1R,3R)-3-fluorocyclopentyl)methyl)-1H-pyrazol-4-yl)-6-methylpyridin-2-yl)quinoline]	32
Cc1ccc(-c2cnn(CC3(F)CCCC3)c2)c(-c2ccc3c(c2)C(=O)N(C)C3)n1 [Example 1, 6-(3-(1-((1-fluorocyclopentyl)methyl)-1H-pyrazol-4-yl)-6-methylpyridin-2-yl)-2-methylisoindolin-1-one]	17
Cc1cn2ccc(-c3nc(C#N)ccc3-c3cnn(CC4(F)CCCC4)c3)cc2n1 [Example 3, 5-(1-((1-fluorocyclopentyl)methyl)-1H-pyrazol-4-yl)-6-(2-methylimidazo[1,2-a]pyridin-7-yl)picolinonitrile]	12
Cc1cn2ccc(-c3ncccc3-c3cnn(CC4C[C@H](F)[C@@H](F)C4)c3)cc2n1 [Example 4, 7-(3-(1-(((3S,4S)-3,4-difluorocyclopentyl)methyl)-1H-pyrazol-4-yl)pyridin-2-yl)-2-methylimidazo[1,2-a] pyridine]	63
Cc1cn2ccc(-c3ncccc3-c3cnn(CC4C[C@@H](F)[C@H](F)C4)c3)cc2n1 [Example 5, 7-(3-(1-(((3R,4R)-3,4-difluorocyclopentyl)methyl)-1H-pyrazol-4-yl)pyridin-2-yl)-2-methylimidazo[1,2-a]pyridine]	87
Cc1ccc(-c2nc(C)ccc2-c2cnn(CC3CCCC3)c2)cc1 [Example 6, 3-(1-(cyclopentylmethyl)-1H-pyrazol-4-yl)-6-methyl-2-(p-tolyl)pyridine]	72
Cc1ccc(-c2cnn(CC3CCCC3)c2)c(-c2cnc3c(c2)ncn3C)n1 [Example 7, 6-(3-(1-(cyclopentylmethyl)-1H-pyrazol-4-yl)-6-methylpyridin-2-yl)-3-methyl-3H-imidazo[4,5-b]pyridine]	94
Cc1ccc(-c2cnn(CC3CCCC3)c2)c(-c2ccc(CCCO)cc2)n1 [Example 8, 3-(4-(3-(1-(cyclopentylmethyl)-1H-pyrazol-4-yl)-6-methylpyridin-2-yl)phenyl)propan-1-ol]	54
Cc1ccc(-c2cnn(CC3CCCC3)c2)c(-c2ccc(C(O)C(F)(F)F)cc2)n1 (centres unmarked) [Example 9, 1-(4-(3-(1-(cyclopentylmethyl)-1H-pyrazol-4-yl)-6-methylpyridin-2-yl)phenyl)-2,2,2-trifluoroethan-1-ol]	50
COc1cnc2cc(-c3nc(C)ccc3-c3cnn(CC4(C)CCCC4)c3)ccc2c1 [Example 10, 3-methoxy-7-(6-methyl-3-(1-((1-methylcyclopentyl)methyl)-1H-pyrazol-4-yl)pyridin-2-yl)quinoline]	25
Cc1ccc(-c2cnn(CC3CCCC3)c2)c(-c2ccc3oc(C)nc3c2)n1 [Example 11, 5-(3-(1-(cyclopentylmethyl)-1H-pyrazol-4-yl)-6-methylpyridin-2-yl)-2-methylbenzo[d]oxazole]	46
COc1cc2ccc(-c3nc(C)ccc3-c3cnn(CC4CCCC4)c3F)cc2nn1 [Example 12, 7-(3-(1-(cyclopentylmethyl)-5-fluoro-1H-pyrazol-4-yl)-6-methylpyridin-2-yl)-3-methoxycinnoline]	7
